# Source: patent US10093623B2, “Cyclic amides as MetAP-2 inhibitors” (MERCK PATENT GmbH, priority 2012, dated 2018)
# Target: MetAP-2 (Homo sapiens, UniProt P50579)
# Assay: MetAP-2 activity measurement (coupled enzymatic reactions, Met-Arg-Ser substrate, dianisidine detection at 450 nm)
# Type: biochemical
# Conditions: Inhibition of MetAP-2; read-out: IC50 enzyme
# Procedure: MetAP-2 Activity Measurement
# The MetAP-2 activity is determined by coupling enzymatic reactions. The tripeptide Met-Arg-Ser (MAS) is employed as substrate. The methionine liberated is firstly converted into Metox and H2O2 by L-aminooxidase (AAO). In the second step, the peroxidase (POD) with the aid of the H2O2 catalyses the oxidation of the leukodye dianisidine to dianisidineox, the increase of which is detected photometrically at 450 nm.
# MetAP-2 activity can be recorded continuously as kinetics. The reaction scheme illustrates that one mol of dianisidineox is formed per mol of methionene. The MetAP-2 enzyme activity can therefore be calculated directly as A absorption per time unit. Qualification of the MetAP-2 activity (mol of Met/time unit) is possible with the aid of the dianisidineox extinction coefficient.
# The change in extinction per time unit is depicted graphically and a slope calculation is carried out in the visually linear region of the reaction.
# MetAP-2, sequence (P50579 whole entry, species assumed): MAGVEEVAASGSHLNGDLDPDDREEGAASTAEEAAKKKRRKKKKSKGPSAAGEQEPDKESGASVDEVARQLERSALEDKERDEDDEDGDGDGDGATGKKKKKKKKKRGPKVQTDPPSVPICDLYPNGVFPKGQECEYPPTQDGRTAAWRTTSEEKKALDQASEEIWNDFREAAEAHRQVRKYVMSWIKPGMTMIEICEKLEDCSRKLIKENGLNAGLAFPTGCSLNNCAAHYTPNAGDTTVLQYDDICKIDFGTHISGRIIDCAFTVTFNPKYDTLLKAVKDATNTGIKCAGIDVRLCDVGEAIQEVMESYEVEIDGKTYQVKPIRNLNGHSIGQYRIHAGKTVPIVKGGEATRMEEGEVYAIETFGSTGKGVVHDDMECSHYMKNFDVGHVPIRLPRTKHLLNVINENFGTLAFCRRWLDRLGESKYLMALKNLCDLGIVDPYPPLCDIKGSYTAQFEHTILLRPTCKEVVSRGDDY
row,SMILES,IC50 [µM]
1,"CC(=O)N[C@H]1CC[C@H](N2CCC(O)(C(=O)NCc3cc(F)cc(Cl)c3)C2=O)CC1 (some centres unmarked) [A122, N-(3-Chloro-5-fluorobenzyl)-1-(4-acetylaminocyclohexyl)-3-hydroxy-2-oxopyrrolidine-3-carboxamide]",1 to 10
2,"CS(=O)(=O)N[C@H]1CC[C@H](N2CCC(O)(C(=O)NCc3cc(F)cc(Cl)c3)C2=O)CC1 (some centres unmarked) [A123, N-(3-Chloro-5-fluorobenzyl)-3-hydroxy-1-(4-methane-sulfonylaminocyclohexyl)-2-oxo-pyrrolidine-3-carboxamide]",1 to 10
3,"CCS(=O)(=O)N[C@H]1CC[C@H](N2CCC(O)(C(=O)NCc3cc(F)cc(Cl)c3)C2=O)CC1 (some centres unmarked) [A124, N-(3-Chloro-5-fluorobenzyl)-1-(4-ethanesulfonylamino-cyclohexyl)-3-hydroxy-2-oxo-pyrrolidine-3-carboxamide]",1 to 10
4,"O=C(NCc1cc(F)cc(Cl)c1)C1(O)CCN([C@H]2CCC[C@H](O)[C@@H]2O)C1=O (stereo partly drawn) [A125, N-(3-Chloro-5-fluorobenzyl)-1-((1S,2R,3S)-2,3-dihydroxy-cyclohexyl)-3-hydroxy-2-oxo-pyrrolidine-3-carboxamide]",1 to 10
5,"CC(=O)NC1CCCC(N2CCC(O)(C(=O)NCc3cc(F)cc(Cl)c3)C2=O)C1 (centres unmarked) [A126, N-(3-Chloro-5-fluorobenzyl)-1-(3-acetylaminocyclohexyl)-3-hydroxy-2-oxopyrrolidine-3-carboxamide]",1 to 10
6,"CCN[C@H]1CC[C@H](N2CCC(O)(C(=O)NCc3cc(F)cc(Cl)c3)C2=O)CC1 (some centres unmarked) [A127, N-(3-Chloro-5-fluorobenzyl)-1-(4-ethylaminocyclohexyl)-3-hydroxy-2-oxopyrrolidine-3-carboxamide]",1 to 10
7,"CCS(=O)(=O)NC1CCCC(N2CCC(O)(C(=O)NCc3cc(F)cc(Cl)c3)C2=O)C1 (centres unmarked) [A128, N-(3-Chloro-5-fluorobenzyl)-1-(3-ethanesulfonylamino-cyclohexyl)-3-hydroxy-2-oxo-pyrrolidine-3-carboxamide]",1 to 10
8,"CC1(C)O[C@H]2[C@H](CCC[C@@H]2N2CCC(O)(C(=O)NCc3cc(F)cc(Cl)c3)C2=O)O1 (stereo partly drawn) [A129, N-(3-Chloro-5-fluorobenzyl)-1-((3aR,4S,7aS)-2,2-dimethyl-hexahydrobenzo-1,3-dioxol-4-yl)-3-hydroxy-2-oxopyrrolidine-3-carboxamide]",1 to 10
9,"NC(=O)c1cc(C(N)=O)cc(N2CCC(O)(C(=O)NCc3cc(F)cc(Cl)c3)C2=O)c1 (centres unmarked) [A130, 5-[3-(3-Chloro-5-fluorobenzylcarbamoyl)-3-hydroxy-2-oxopyrrolidin-1-yl]-isophthalamide]",1 to 10
10,"O=C(NCc1cc(F)cc(Cl)c1)C1(O)CCN([C@@H]2CCNC2)C1=O (stereo partly drawn) [A131, N-(3-Chloro-5-fluorobenzyl)-(R)-3-hydroxy-2-oxo-[1,3′]bipyrrolidinyl-3-carboxamide]",> 10
11,"CNC(=O)c1cccc(N2CCC(O)(C(=O)NCc3cc(F)cc(Cl)c3)C2=O)c1 (centres unmarked) [A133, N-(3-Chloro-5-fluorobenzyl)-3-hydroxy-1-(3-methylcarbamoyl-phenyl)-2-oxopyrrolidine-3-carboxamide]",0.01 to 1
12,"CN(C)C(=O)c1cccc(N2CCC(O)(C(=O)NCc3cc(F)cc(Cl)c3)C2=O)c1 (centres unmarked) [A134, N-(3-Chloro-5-fluorobenzyl)-1-(3-Dimethylcarbamoylphenyl)-3-hydroxy-2-oxopyrrolidine-3-carboxamide]",0.01 to 1
13,"COc1ccc(CN2CCC(O)(C(=O)NCc3cc(F)cc(Cl)c3)C2=O)cc1 (centres unmarked) [A135, N-(3-Chloro-5-fluorobenzyl)-3-hydroxy-1-(4-methoxybenzyl)-2-oxopyrrolidine-3-carboxamide]",0.01 to 1
14,"O=C(NCc1cc(F)cc(Cl)c1)C1(O)CCN(Cc2ccccc2)C1=O (centres unmarked) [A136, N-(3-Chloro-5-fluorobenzyl)-1-benzyl-3-hydroxy-2-oxo-pyrrolidine-3-carboxamide]",0.01 to 1
15,"O=C1CCc2cc(N3CCC(O)(C(=O)NCCc4cc(F)cc(Cl)c4)C3=O)ccc2N1 (centres unmarked) [A137, N-[2-(3-Chloro-5-fluorophenyl)-ethyl]-3-hydroxy-2-oxo-1-(2-oxo-1,2,3,4-tetrahydroquinolin-6-yl)-pyrrolidine-3-carboxamide]",0.01 to 1
16,"COc1ccc(N2CCC(O)(C(=O)NCc3cc(F)cc(Cl)c3)C2=O)cn1 (centres unmarked) [A138, N-(3-Chloro-5-fluorobenzyl)-3-hydroxy-1-(6-methoxypyridin-3-yl)-2-oxopyrrolidine-3-carboxamide]",0.01 to 1
17,"CC(=O)Nc1ccc(N2CCC(O)(C(=O)NCCc3cc(F)cc(Cl)c3)C2=O)cn1 (centres unmarked) [A139, N-[2-(3-Chloro-5-fluorophenyl)-ethyl]-1-(6-acetylaminopyridin-3-yl)-3-hydroxy-2-oxopyrrolidine-3-carboxamide]",0.01 to 1
18,"O=C(NCc1cc(F)cc(Cl)c1)[C@@]1(O)CCN(Cc2ccccc2)C1=O [A140, N-(3-Chloro-5-fluorobenzyl)-(S)-1-benzyl-3-hydroxy-2-oxo-pyrrolidine-3-carboxamide]",0.01 to 1

row,SMILES,IC50 [µM]
1,"O=C(NCc1cc(F)cc(Cl)c1)[C@]1(O)CCN(Cc2ccccc2)C1=O [A141, N-(3-Chloro-5-fluorobenzyl)-(R)-1-benzyl-3-hydroxy-2-oxo-pyrrolidine-3-carboxamide]",> 10
2,"Cc1cc(N2CCC(O)(C(=O)NCc3cc(F)cc(Cl)c3)C2=O)cnc1N1CCOCC1=O (centres unmarked) [A142, N-(3-Chloro-5-fluorobenzyl)-3-hydroxy-1-[5-methyl-6-(3-oxo-morpholin-4-yl)-pyridin-3-yl]-2-oxopyrrolidine-3-carboxamide]",0.01 to 1
3,"CC(=O)Nc1ccc(N2CCC(O)(C(=O)NCCc3ccccc3C(F)(F)F)C2=O)cn1 (centres unmarked) [A143, N-[2-(2-Trifluoromethylphenyl)-ethyl]-1-(6-acetylaminopyridin-3-yl)-3-hydroxy-2-oxopyrrolidine-3-carboxamide]",0.01 to 1
4,"NC(=O)c1cccc(N2CCC(O)(C(=O)NCCc3ccccc3C(F)(F)F)C2=O)c1 (centres unmarked) [A144, N-[2-(2-Trifluoromethylphenyl)-ethyl]-1-(3-carbamoylphenyl)-3-hydroxy-2-oxopyrrolidine-3-carboxamide]",0.01 to 1
5,"CC(NC(=O)C1(O)CCN(c2ccccc2)C1=O)c1cccc(F)c1 (centres unmarked) [A145, N-[1-(3-Fluorophenyl)ethyl]-3-hydroxy-2-oxo-1-phenyl-pyrrolidine-3-carboxamide]",1 to 10
6,"CNC(=O)c1cc2cc(N3CCC(O)(C(=O)NCc4cc(F)cc(Cl)c4)C3=O)ccc2o1 (centres unmarked) [A146, N-(3-Chloro-5-fluorobenzyl)-3-hydroxy-1-(2-methylcarbamoyl-benzofuran-5-yl)-2-oxo-pyrrolidine-3-carboxamide]",0.01 to 1
7,"O=C(NCc1cc(F)cc(Cl)c1)C1(O)CCN(c2ccc3[nH]c(=O)ccc3c2)C1=O (centres unmarked) [A147, N-(3-Chloro-5-fluorobenzyl)-3-hydroxy-2-oxo-1-(2-oxo-1,2-dihydroquinolin-6-yl)pyrrolidine-3-carboxamide]",0.01 to 1
8,"CCOC(=O)[C@H]1CC[C@H](N2CCC(O)(C(=O)NCc3cc(F)cc(Cl)c3)C2=O)CC1 (some centres unmarked) [A148, Ethyl 4-[3-(3-chloro-5-fluorobenzylcarbamoyl)-3-hydroxy-2-oxopyrrolidin-1-yl]-cyclohexanecarboxylate]",1 to 10
9,"O=C1CCc2cc(N3CC[C@](O)(C(=O)NCCc4cc(F)cc(Cl)c4)C3=O)ccc2N1 [A149, N-[2-(3-Chloro-5-fluorophenyl)-ethyl]-(S)-3-hydroxy-2-oxo-1-(2-oxo-1,2,3,4-tetrahydroquinolin-6-yl)pyrrolidine-3-carboxamide]",0.01 to 1
10,"O=C1CCc2cc(N3CC[C@@](O)(C(=O)NCCc4cc(F)cc(Cl)c4)C3=O)ccc2N1 [A150, N-[2-(3-Chloro-5-fluorophenyl)-ethyl]-(R)-3-hydroxy-2-oxo-1-(2-oxo-1,2,3,4-tetrahydroquinolin-6-yl)pyrrolidine-3-carboxamide]",> 10
11,"O=C1COc2cc(N3CCC(O)(C(=O)NCc4cc(F)cc(Cl)c4)C3=O)ccc2N1 (centres unmarked) [A151, N-(3-Chloro-5-fluorobenzyl)-3-hydroxy-2-oxo-1-(3-oxo-3,4-dihydro-2H-benzo-1,4-oxazin-7-yl)pyrrolidine-3-carboxamide]",0.01 to 1
12,"O=C(NCc1cc(F)cc(Cl)c1)C1(O)CCN([C@H]2CC[C@H](C(=O)O)CC2)C1=O (some centres unmarked) [A152, 4-[3-(3-Chloro-5-fluorobenzyl-carbamoyl)-3-hydroxy-2-oxo-pyrrolidin-1-yl]-cyclohexanecarboxylic acid]",1 to 10
13,"O=C(NCc1cc(F)cc(Cl)c1)[C@@]1(O)CCN(c2ccc3cc[nH]c3c2)C1=O [A153, N-(3-Chloro-5-fluorobenzyl)-(S)-3-hydroxy-1-(1H-indol-6-yl)-2-oxopyrrolidine-3-carboxamide]",0.01 to 1
14,"O=C(NCc1cc(F)cc(Cl)c1)[C@]1(O)CCN(c2ccc3cc[nH]c3c2)C1=O [A154, N-(3-Chloro-5-fluorobenzyl)-(R)-3-hydroxy-1-(1H-indol-6-yl)-2-oxopyrrolidine-3-carboxamide]",> 10
15,"CC(=O)Nc1ccc(N2CC[C@](O)(C(=O)NCCc3cc(F)cc(Cl)c3)C2=O)cn1 [A155, N-[2-(3-Chloro-5-fluorophenyl)-ethyl]-(S)-1-(6-acetylamino-pyridin-3-yl)-3-hydroxy-2-oxo-pyrrolidine-3-carboxamide]",0.01 to 1
16,"CC(=O)Nc1ccc(N2CC[C@@](O)(C(=O)NCCc3cc(F)cc(Cl)c3)C2=O)cn1 [A156, N-[2-(3-Chloro-5-fluorophenyl)-ethyl]-(R)-1-(6-acetylamino-pyridin-3-yl)-3-hydroxy-2-oxo-pyrrolidine-3-carboxamide]",> 10
17,"CNC(=O)[C@H]1CC[C@H](N2CCC(O)(C(=O)NCc3cc(F)cc(Cl)c3)C2=O)CC1 (some centres unmarked) [A157, N-(3-Chloro-5-fluorobenzyl)-3-hydroxy-1-(4-methylcarbamoyl-cyclohexyl)-2-oxopyrrolidine-3-carboxamide]",1 to 10
